From US11213533B2, “Combinations comprising dibromopropamidine or diminazene and a tetracycline anti-bacterial agent” (UNION therapeutics A/S, priority 2016, dated 2022)
Where a name gives a salt, the structure may show the parent alone. Read-outs that look alike come from different tables or passages of the source.

How the values were obtained:
[1] = system: Pseudomonas aeruginosa (X11045); assay: Checkerboard MIC / synergy determination (FIC, CI) against Pseudomonas aeruginosa; format: cell-based; details: for MIC: Pseudomonas aeruginosa; for MIC / MIC dibromopropamidine (μg/ml) (combination) / FIC dibromopropamidine / MIC diminazene (μg/ml) (combination) / MIC tetracycline (μg/ml) (combination) / CI value / synergy with diminazene (in words) / FIC tetracycline compound / FIC tetracycline / MIC tetracycline compound / MIC tetracycline: P. aeruginosa; for synergy with dibromopropamidine (in words): combination with dibromopropamidine, inhibition of P. aeruginosa, Table 3; for CI value: CI < 1 = synergy; for synergy with diminazene (in words): combination with diminazene, Table 2; for FIC tetracycline compound: in combination with dibromopropamidine; for FIC tetracycline: in combination with diminazene
Description: In microbiology, minimum inhibitory concentration (MIC) is the lowest concentration of an antibacterial that will inhibit the visible growth of a microorganism after overnight incubation. Minimum inhibitory concentrations are important in diagnostic laboratories to confirm resistance of microorganisms to an antimicrobial agent and also to monitor the activity of new antimicrobial agents. The MIC can be determined using standard methods, for example as described in Andrews, J. Antimicrobial Chemotherapy, 48, 2001, Suppl. S1, 5-16. Typically, MIC is determined using 96-well plates, and serial two-fold dilutions of the antibacterial agent in a culture medium containing the bacteria with an approximate concentration of 10^3 cells per well. Plates are incubated at 37° C. for 18 to 24 hours. Optical density, at a wavelength of 600 nm, is then measured at the start and at the end of the incubation period. Inhibition in a particular well is calculated as (Inhibition=1−ODtest/ODno treatment). The MIC value is the minimum concentration of antibacterial agent which gives 100% inhibition. Experiments are generally performed at least as triplicate biological replicates.
The CI is measured by first calculating the fractional inhibitory concentration (FIC) of the individual actives (e.g. “compound A” or “compound B”) in a combination product against a certain bacterial strain. This is calculated by dividing the minimum inhibitory concentration (MIC) of the active in a combination product by the minimum inhibitory concentration of the active alone.
The Combination Index (CI) is calculated by adding the FIC of the two actives together. CI value=FICCompound A+FICCompound B
A CI value of 1 means the combined effect of the two agents is additive. A CI value of less than 1 means that the two agents act synergistically. It is therefore understood that the lower the CI value, the better the synergistic effect of the combination product. For a drug combination to show synergistic effects, the CI value will typically be less than 1.
This study was conducted with the following strains: Pseudomonas aeruginosa (X11045). P. aeruginosa (X11045) was received form Statens Serum Institute.
The bacteria from cryopreserved stocks were grown on LB agar plates [G. Bertani, “Studies on lysogenesis. I. The mode of phage liberation by lysogenic Escherichia coli,” J. Bacteriol., vol. 62, no. 3, pp. 293-300, September 1951] and incubated overnight at 37° C.
One colony was transferred into 15 ml of cation-adjust Mueller Hinton broth (MH2) [J. H. Mueller and J. Hinton, “A Protein-Free Medium for Primary Isolation of the Gonococcus and Meningococcus,” Exp. Biol. Med., vol. 48, no. 1, pp. 330-333, October 1941] and incubated overnight at 37° C. shaken at 200 rpm.
Checkerboard Methods of Antimicrobial Combinations Synergy Determination • 1. Day 1. • Bacterial strains are isolated on agar plates and incubated overnight at 37° C. Pseudomonas aeruginosa (X11045) on LB agar. • 2. Day 2. • For each strain, one colony is transferred into 15 ml of Mueller Hinton broth (MHB) and incubated overnight at 37° C. shaken at 200 rpm. • 3. Day 3. • Fifty microliters of the O/N culture are inoculated to 5 ml of Mueller Hinton broth in 15 ml conical tubes and incubated for 5 hours at 37° C. shaken at 200 rpm. • 4. Dispense 150 μl of MHB in each well of the 12th column for positive and negative controls as shown above. • 5. Prepare each drug to Cmax×2 • a. Diminazene/Dibromopropamidine: • Make a series of 2-fold dilution as shown in the plate layout. Using the 12 channel pipet, dispense 75 μl of diminazene solution in each well so that the final volume will be 150 μl and the final concentration is as shown in the plate schematic above. • b. Tetracycline antibiotics: • Make a series of 2-fold dilution as shown in the plate layout. […]

[2] = system: E. Coli; assay: Checkerboard MIC / synergy determination (FIC, CI) against E. coli; format: cell-based, Escherichia coli; details: for MIC: Escherichia coli; for MIC tetracycline (μg/ml) (combination): MIC of the tetracycline antibiotic in combination with diminazene; for CI value: combination of the tetracycline antibiotic with diminazene, CI < 1 = synergy; for FIC tetracycline compound: in combination with diminazene
[3] = cited from earlier work
[4] = in combination with doxycycline hyclate
[5] = in combination with minocycline hydrochloride
[6] = in combination with tetracycline hydrochloride
[7] = in combination with tigecycline hydrate
[8] = diminazene alone, read-out: MIC diminazene
[9] = diminazene in combination with doxycycline hyclate
[10] = diminazene in combination with minocycline hydrochloride
[11] = diminazene in combination with tetracycline hydrochloride
[12] = MIC of the tetracycline antibiotic in combination with dibromopropamidine
[13] = MIC of the tetracycline antibiotic in combination with diminazene, OD600 after 18 hours
[14] = combination of the tetracycline antibiotic with dibromopropamidine
[15] = combination of the tetracycline antibiotic with diminazene
[16] = tetracycline antibiotic alone, Table 3 (dibromopropamidine series)
[17] = tetracycline antibiotic alone, Table 2 (diminazene series)

N=C(N)c1ccc(OCCCOc2ccc(C(=N)N)cc2Br)c(Br)c1 [dibromopropamidine, Dibromopropamidine dihydrochloride]
MIC ([1]; dibromopropamidine alone, read-out: MIC dibromopropamidine): 10 µg/mL | MIC dibromopropamidine (μg/ml) (combination) ([1]; dibromopropamidine in combination with doxycycline hyclate): 2.50 µg/mL | MIC dibromopropamidine (μg/ml) (combination) ([1]; dibromopropamidine in combination with minocycline hydrochloride): 2.50 µg/mL | MIC dibromopropamidine (μg/ml) (combination) ([1]; dibromopropamidine in combination with tetracycline hydrochloride): 5.00 µg/mL | MIC dibromopropamidine (μg/ml) (combination) ([1]; dibromopropamidine in combination with tigecycline hydrate): 5.00 µg/mL | FIC dibromopropamidine [1, 4]: 0.25 | FIC dibromopropamidine [1, 5]: 0.25 | FIC dibromopropamidine [1, 6]: 0.50 | FIC dibromopropamidine [1, 7]: 0.50

N=C(N)c1ccc(/N=N/Nc2ccc(C(=N)N)cc2)cc1 [diminazene, Diminazene aceturate]
MIC [1, 8]: 250 µg/mL | FIC dibromopropamidine ([1]; Table 2 (diminazene table), in combination with doxycycline hyclate): 0.13 | FIC dibromopropamidine ([1]; Table 2 (diminazene table), in combination with minocycline hydrochloride): 0.13 | FIC dibromopropamidine ([1]; Table 2 (diminazene table), in combination with tetracycline hydrochloride): 0.25 | MIC diminazene (μg/ml) (combination) [1, 9]: 31.25 µg/mL | MIC diminazene (μg/ml) (combination) [1, 10]: 31.25 µg/mL | MIC diminazene (μg/ml) (combination) [1, 11]: 62.50 µg/mL | MIC [2, 8]: 20 µg/mL | MIC diminazene (μg/ml) (combination) [2, 9]: 1.25 µg/mL | MIC diminazene (μg/ml) (combination) [2, 10]: 5.00 µg/mL | MIC diminazene (μg/ml) (combination) [2, 11]: 20.00 µg/mL | MIC diminazene (μg/ml) (combination) ([2]; diminazene in combination with tigecycline hydrate): 2.50 µg/mL | FIC diminazene [2, 4]: 0.06 | FIC diminazene [2, 5]: 0.25 | FIC diminazene [2, 6]: 1.00 | FIC diminazene [2, 7]: 0.13 | Protein binding (%) [3]: 65-85%

Doxycycline hyclate
synergy with dibromopropamidine (in words) [1]: Especially strong synergy

CN(C)[C@@H]1C(O)=C(C(N)=O)C(=O)[C@@]2(O)C(O)=C3C(=O)c4c(O)cccc4[C@@](C)(O)[C@H]3C[C@@H]12.Cl [Tetracycline hydrochloride]
MIC tetracycline (μg/ml) (combination) [1, 12]: 2.00 µg/mL | MIC tetracycline (μg/ml) (combination) [1, 13]: 4.00 µg/mL | MIC ([1]; 18 h, tetracycline antibiotic alone, Table 2 (diminazene series), read-out: MIC tetracycline): 16 µg/mL | MIC ([1]; 18 h, tetracycline antibiotic alone, Table 3 (dibromopropamidine series), read-out: MIC tetracycline compound): 16 µg/mL | CI value [1, 14]: 0.63 | CI value [1, 15]: 0.50 | synergy with diminazene (in words) [1]: strong synergy | FIC tetracycline compound [1]: 0.13 | FIC tetracycline [1]: 0.25 | MIC ([2]; 18 h, tetracycline antibiotic alone, read-out: MIC tetracycline compound): 0.5 µg/mL | MIC tetracycline (μg/ml) (combination) [2]: 0.50 µg/mL | CI value [2]: 2.00 | FIC tetracycline compound [2]: 1.00

CN(C)c1cc(NC(=O)CNC(C)(C)C)c(O)c2c1C[C@H]1C[C@H]3[C@H](N(C)C)C(O)=C(C(N)=O)C(=O)[C@@]3(O)C(O)=C1C2=O [Tigecycline hydrate]
MIC tetracycline (μg/ml) (combination) [1, 12]: 0.50 µg/mL | CI value [1, 14]: 0.52 | FIC tetracycline compound [1]: 0.02 | MIC tetracycline compound [1, 16]: 32.0 µg/mL | MIC tetracycline (μg/ml) (combination) [2]: 0.25 µg/mL | CI value [2]: 0.38 | synergy with diminazene (in words) ([2]; combination with diminazene, Table 4): particularly good synergy | FIC tetracycline compound [2]: 0.25 | MIC tetracycline compound ([2]; tetracycline antibiotic alone): 1.00 µg/mL | Protein binding (%) [3]: 80%

C[C@H]1c2cccc(O)c2C(=O)C2=C(O)[C@]3(O)C(=O)C(C(N)=O)=C(O)[C@@H](N(C)C)[C@@H]3[C@@H](O)[C@@H]21 [Doxycycline hyclate]
MIC tetracycline (μg/ml) (combination) [1, 12]: 0.50 µg/mL | MIC tetracycline (μg/ml) (combination) [1, 13]: 3.13 µg/mL | CI value [1, 14]: 0.28 | CI value [1, 15]: 0.25 | synergy with diminazene (in words) [1]: strong synergy | FIC tetracycline compound [1]: 0.03 | FIC tetracycline [1]: 0.13 | MIC tetracycline [1, 17]: 25.00 µg/mL | MIC tetracycline compound [1, 16]: 16.00 µg/mL | MIC tetracycline (μg/ml) (combination) [2]: 0.25 µg/mL | CI value [2]: 0.56 | FIC tetracycline compound [2]: 0.50 | MIC tetracycline compound ([2]; tetracycline antibiotic alone): 0.50 µg/mL | Protein binding (%) [3]: 85%

CN(C)c1ccc(O)c2c1C[C@H]1C[C@H]3[C@H](N(C)C)C(O)=C(C(N)=O)C(=O)[C@@]3(O)C(O)=C1C2=O.Cl [Minocycline hydrochloride]
MIC tetracycline (μg/ml) (combination) [1, 12]: 0.50 µg/mL | MIC tetracycline (μg/ml) (combination) [1, 13]: 3.13 µg/mL | CI value [1, 14]: 0.28 | CI value [1, 15]: 0.25 | synergy with dibromopropamidine (in words) [1]: Especially strong synergy | synergy with diminazene (in words) [1]: strong synergy | FIC tetracycline compound [1]: 0.03 | FIC tetracycline [1]: 0.13 | MIC tetracycline [1, 17]: 25.00 µg/mL | MIC tetracycline compound [1, 16]: 16.00 µg/mL | MIC tetracycline (μg/ml) (combination) [2]: 0.13 µg/mL | CI value [2]: 0.50 | FIC tetracycline compound [2]: 0.25 | MIC tetracycline compound ([2]; tetracycline antibiotic alone): 0.50 µg/mL | Protein binding (%) [3]: 66%
